Source: patent US20160369258A1, “RESTRICTING NUCLEAR PROTEIN TO SPECIFIC PHASES OF THE CELL CYCLE” (UNIVERSITY OF WASHINGTON, priority 2014, published 2016)
Peptide text beside a SMILES is read from it. * marks the point of attachment. Cbz = O=C(OCc1ccccc1)*

Legend:
AID-mCherry = assay: HCS microscopy of AID-mCherry subcellular distribution after LMB / MG132 treatment; format: cell-based, human; conditions: for cytoplasmic AID-mCherry signal, response to treatment / nuclear AID-mCherry signal, increase relative to untreated cells: Ramos AID-mCherry transductants, LMB 50 ng/ml, MG132 50 μM; for nuclear AID-mCherry signal, increase relative to untreated cells: 0-4 hr
Procedure: We analyzed subcellular distribution of AID in the human B cell line, Ramos, transduced with a lentiviral construct expressing human AID fused to the mCherry fluorescent protein at the C-terminus. Ramos B cells express endogenous AID and actively diversify their Ig genes, so the pathways that regulate and respond to damage by AID are intact. Cells were analyzed by high content screening (HCS) microscopy (43), a […] approach that automatically quantifies signals per unit area (pixels) in each compartment of each cell (FIG. 1A). […] The cytoplasmic signal was unaffected by MG132 treatment, but diminished upon treatment with LMB or LMB+MG132, paralleling the increase in nuclear signal.
The human Burkitt lymphoma cell line, Ramos, was cultured in supplemented RPMI 1640 (Gibco), which contained 10% FBS, 2 mM L-glutamine, penicillin/streptomycin, 1× non-essential amino acids (Gibco), 1 mM sodium pyruvate, and 10 mM HEPES. Lentiviral transductions used 2×10^5 cells cultured in medium containing 8 μg/ml of polybrene. Following transduction, cells were cultured for 3-4 days and these recent transductants then sorted for mCherry+ to enrich for transduced cells, typically constituting 0.1-10% of the population. Cells were treated with leptomycin B (LMB; LC Laboratories) at 50 ng/ml and MG132 (Z-Leu-Leu-Leu-aldehyde; Sigma-Aldrich) at 50 μM. Viable cells were counted after trypan blue staining. Cell viability was confirmed by CellTiter-Glo® Luminescent Cell Viability Assay (Promega).
Cells were fixed in 3.7% formaldehyde at a density of 2×10^6 cells/ml and stained with whole cell stain (HCS CellMask, Invitrogen) and DAPI (0.2 μg/ml). Fixed cells were then washed, resuspended in PBS and spun down in a 96-well μclear microplate (Greiner Bio One) for imaging. Cells were imaged by Thermo Scientific ArrayScan VTI HCS reader, analyzing 3000-6000 cells in each treatment group. Cells with very low or very high mCherry signals were eliminated, gating based on the mock transduction control (low) and eliminating cells with signals more than 5 SD from the mean (high). The HCS Colocalization BioApplication protocol was used to determine nuclear and whole cell boundaries in individual cells as defined by DAPI and HCS CellMask, respectively, thereby defining the cytoplasmic region as the region between nuclear and whole cell boundaries. The average signal in the nuclear and cytoplasmic compartments was determined in individual cells by measuring the total intensity of mCherry signal divided by area within each compartment. The ratio of nuclear to cytoplasmic signal (N/C) was calculated as the ratio of the average signals of nuclear and cytoplasmic mCherry.
G1, S, and G2/M phase cells were distinguished by ranking DNA content as determined by total DAPI signal, and specific fractions of the population assigned to G1, S and G2/M phases (FIG. 16A). HCS results were expressed in terms of average signal, to ensure independence of cell size, which increases during cell cycle (FIG. 16).

Ramos B cells = assay: Flow cytometry of cell cycle profile and fluorescent signal; format: cell-based, human; conditions: up to 4 hr of culture; Ramos AID-mCherry transductants
Procedure: To determine cell cycle distribution, cells were fixed, permeabilized with 0.5% Triton X-100, stained with DAPI (2 μg/ml) and analyzed by FACS.

Row | Structure (SMILES) | cytoplasmic AID-mCherry signal, response to treatment (AID-mCherry) | nuclear AID-mCherry signal, increase relative to untreated cells (AID-mCherry) | drop of cytoplasmic AID-mCherry signal (AID-mCherry; all stages of cell cycle (G1, S, G2/M)) [%] | N/C ratio of AID-mCherry signal (AID-mCherry; representative cell, 0.5 hr LMB (untreated 0.80)) | effect of treatment on cell cycle (Ramos B cells) | effect on nuclear or cytoplasmic AID-mCherry signals (AID-mCherry; any phase of cell cycle)
1 | CCC(=C/[C@H](C)C/C=C/C(C)=C/[C@@H](C)C(=O)[C@@H](C)[C@H](O)[C@@H](C)C/C(C)=C/C(=O)O)/C=C/[C@@H]1OC(=O)C=C[C@@H]1C [LMB, leptomycin B] | diminished | 1.5 fold | 50 | 1.34 | not perturbed significantly | 
2 | CC(C)C[C@@H](C=O)NC(=O)[C@H](CC(C)C)NC(=O)[C@H](CC(C)C)NC(=O)OCc1ccccc1 [MG132, Z-Leu-Leu-Leu-aldehyde] (Cbz-Leu-Leu-Leu-aldehyde) | unaffected | unaffected |  |  | not perturbed significantly | little effect
